Active and inactive are the calls of the source. The rule behind the calls is not given here.
What was measured:
NCI-H226 = test: Growth inhibition of human NCI-H226 cells; type: functional
Saccharomyces cerevisiae = test: Growth restoration activity in cdc2-1 rad9-deficient Saccharomyces cerevisiae assessed as growth zone at 4 ug/disc incubated at 37 degC for 6 hrs and 28 degC for 2 days; type: functional
LNCaP = test: Cytotoxicity against human LNCAP cells after 4 days by MTT assay; type: functional, cell-based; details: 96 h
HL-60 [1] = test: Induction of apoptosis in human HL60 cells assessed as DNA fragmentation after 24 hrs by Hoechst staining-based microscopic analysis; type: functional, cell-based
SNB-75 = test: Growth inhibition of human SNB75 cells; type: functional
HL-60 [2] = test: Induction of apoptosis in human HL60 cells assessed as DNA fragmentation at 1.25 to 40 uM by Hoechst staining-based microscopic analysis; type: functional, cell-based; details: TDE = time-dependent effect
HT-29 = test: Growth inhibition of human HT-29 cells; type: functional
HL-60 [3] = test: Ratio of IC50 for human HL60 cells in presence of DFOM to IC50 for human HL60 cells in absence of DFOM; type: functional
DMS-114 = test: Growth inhibition of human DMS114 cells; type: functional
MKN-28 = test: Growth inhibition of human MKN28 cells; type: functional
HL-60 [4] = test: Cytotoxicity against human HL60 cells after 48 hrs by MTT assay; type: functional, cell-based; details: HL-60, 48 h
HL-60 [5] = test: Cytotoxicity against human HL60 cells assessed as cell viability at 2 uM by MTT assay in presence of 20 uM FeSO4; type: functional
OVCAR-3 = test: Growth inhibition of human OVCAR3 cells; type: functional
HL-60 [6] = test: Induction of apoptosis in human HL60 cells assessed as caspase 9 activation after 1 to 6 hrs by spectrophotometric analysis; type: functional, cell-based
[7] = target: MAP kinase p38 (Homo sapiens) (UniProt O15264+Q15759+Q16539+P53778); test: Induction of p38 MAPK phosphorylation at T180/Y182 in human HL60 cells at 5 uM after 6 hrs by Western blot analysis; type: cell-based; details: HL-60
ACHN = test: Growth inhibition of human ACHN cells; type: functional
[8] = Prodrug conversion in buffer at pH 8 assessed as (1)- 7-(1,5-Dimethyl-hex-4-enyl)-4-methyl-3,8-dioxa-tricyclo[5.1.0.0*2,4*]octane formation after 24 hrs by HPLC analysis in presence of 25 mM FeSO4; type: physicochemical; details: pH 8, 24 h
LOX IMVI = test: Growth inhibition of human LOXIMVI cells; type: functional
HL-60 [9] = test: Induction of apoptosis in human HL60 cells assessed as DNA fragmentation after 24 hrs by Hoechst staining-based microscopic analysis preincubated with 5 uM JNK inhibitor SP600125; type: functional, cell-based
HL-60 [10] = test: Induction of ROS generation in human HL60 cells at 10 uM measured immediately by spectrofluorometric analysis; type: functional, cell-based
MKN-45 = test: Growth inhibition of human MKN45 cells; type: functional

Question: For `CC(C)=CCCC(C)C12C=CC(C)(CC1)OO2` (stereo unspecified), which GI50 (NCI-H226) is on record?
Answer: 3.89 µM

Question: And the Activity (Saccharomyces cerevisiae)?
Answer: 29 mm

Question: And the IC50 (LNCaP)?
Answer: 23.4 µM

Question: What about the Activity (HL-60 [1]) of the same molecule?
Answer: Dose-dependent effect

Question: And the GI50 (SNB-75)?
Answer: 1.32 µM

Question: And the Activity (HL-60 [2])?
Answer: tde

Question: And the GI50 (HT-29)?
Answer: 0.178 µM

Question: What about the “Ratio IC50” value (HL-60 [3]) of the same molecule?
Answer: 10

Question: What about the GI50 (DMS-114) of the same molecule?
Answer: 10.7 µM

Question: And the GI50 (MKN-28)?
Answer: 8.32 µM

Question: And the IC50 (HL-60 [4])?
Answer: 3.4 µM

Question: And the Activity (HL-60 [5])?
Answer: 33.2%

Question: What about the GI50 (OVCAR-3) of the same molecule?
Answer: 1.74 µM

Question: And the Activity (HL-60 [6])?
Answer: Dose-dependent effect

Question: And the Activity [7]?
Answer: Active

Question: And the GI50 (ACHN)?
Answer: 1.23 µM

Question: What about the Drug metabolism [8] of the same molecule?
Answer: Active

Question: What about the GI50 (LOX IMVI) of the same molecule?
Answer: 0.214 µM

Question: And the Activity (HL-60 [9])?
Answer: Active

Question: What about the Activity (HL-60 [10]) of the same molecule?
Answer: Active

Question: What about the GI50 (MKN-45) of the same molecule?
Answer: 6.31 µM

From ChEMBL document CHEMBL2062379, “Cleavage mechanism and anti-tumor activity of 3,6-epidioxy-1,10-bisaboladiene isolated from edible wild plants” (Bioorg Med Chem, 2012)
